Read-outs that look alike come from different tables or passages of the source.
Assays:
[1] = cited from earlier work
[2] = system: procoagulant and anticoagulant toxins fractionated from D. russelii venom; experiment: Nanofractionation of D. russelii venom with plasma coagulation assay; type: biochemical, Daboia russelii; details: inhibitor 20 μM to 0.0064 μM
Protocol: (§1) FIG. 12. […] The data is plotted separately for ‘very fast coagulation’, ‘medium coagulation’ and ‘anticoagulation’, based on the slopes of the 0-5 min and 0-20 min readings, and the single endpoint reading at 180 min. The tested inhibitor concentrations are presented alongside the chromatograms. […] The data is presented as the maximal clotting velocity at each concentration, and represents means of triplicate independent repeats with SEMs, where each technical repeat represents the mean of n≥2 technical replicates. The venom-only control (top dashed lines) and the negative control (bottom dashed lines) are presented as intervals and represent the average±SEM observed for the venom-only and PBS controls across all datasets and replicates.
Fifty microlitres of venom solution (D. russelii; 1 mg/ml) was injected into a Shimadzu LC-2010 system with nanofractionation in parallel. Separation was performed on a Waters XBridge reversed-phase C18 column (250×4.6 mm column with 3.5 μm pore-size) at 30° C. The total flow rate of the mobile phase solution was 0.5 ml/min with eluent A (98% H2O, 2% acetonitrile [ACN], 0.1% formic acid [FA]) and eluent B (98% ACN, 2% H2O, 0.1% FA). Liquid chromatography gradients consisted of a linear increase of mobile phase B from 0 to 50% in 20 min, followed by a linear increase to 90% B in 4 min, then isocratic at 90% B for 5 min, after which the percentage of mobile phase B was decreased from 90% to 0% in 1 min, followed by 10 min at 0% B to re-equilibrate. The effluent was split in a 1:9 ratio of which the 10% fraction was sent to a Shimadzu SPD-M20A prominence diode array detector and the 90% fraction was directed to a nanofractionation collector which dispensed the fractions into transparent 384-well plates (F-bottom, rounded square well, polystyrene, without lid, clear, non-sterile; Greiner Bio One, Alphen aan den Rijn, The Netherlands) at a resolution of 6 s/well. […]
The final assay concentrations of the inhibitors tested in the assay were 20 μM, 4 μM, 0.8 μM, 0.16 μM, 0.032 μM and 0.0064 μM. […] The plate was then read immediately for absorbance kinetically for 100 min at 595 nm at 25° C. using a Varioskan™ Flash Multimode Reader (Thermo Fisher Scientific, Ermelo, The Netherlands). The obtained results were normalized by dividing the slope measured in each well by the median of all slope values across the plate, and the processed coagulation chromatograms were plotted to visualize very fast coagulation, medium increased coagulation and anticoagulation, as previously described^37.

[3] = cited from earlier work; remark: listed apart in the source
[4] = system: D. russelii venom coagulation-related activities; experiment: Plasma clotting assay, whole D. russelii venom; type: biochemical, Daboia russelii; details: 150 μM to 150 nM
Protocol: as §1
We used a previously developed plasma clotting assay^35 to measure venom-induced coagulation. Briefly, 100 ng of each venom was incubated at 37° C. for 30 min in the presence or absence of inhibitors (150 μM to 150 nM final concentrations). […] The samples were pipetted in triplicate into 384-well plates, and absorbance monitored at 595 nm for 2 h at 25° C. on an Omega FLUOstar instrument. We calculated the maximum clotting velocity of each of the curves as per clot waveform analysis^67, by calculating the maximum of the first derivative. […]

[5] = system: procoagulant activities of viper venoms (E. ocellatus, E. carinatus, B. asper, D. russelii); experiment: Plasma clotting assay, neutralization of procoagulant venom activity; type: biochemical; details: for IC50: range across all venoms, 100 ng venom, bovine plasma, read-out: IC50, inhibition of procoagulant activity
Description: FIG. 11. SVMP-inhibitors neutralize the in vitro procoagulant activities of several geographically distinct viper venoms. […] The data presented represents the maximum clotting velocity, calculated as the maximum of the first derivative of each clotting curve, from triplicate independent repeat experiments with SEMs, where each technical repeat represents the mean of n≥2 technical replicates. EOC, E. ocellatus; ECAR, E. carinatus; BAS, Bothrops asper, BAR, Bitis arietans; DRUS, Daboia russelii. (B) Neutralization of procoagulant venom activity by four SVMP-inhibitors across four drug concentrations (150 μM to 150 nM). The data is expressed as the maximum clotting velocity at each dose. The negative (PBS) and positive (venom-only) controls are presented as intervals (bottom dashed and top dashed lines, respectively), with the latter representing the mean maximum clotting velocity in these samples±SEM. The data represent triplicate independent repeats with SEMs, where each technical repeat represents the mean of n≥2 technical replicates. Note the different y-axis scales.
Since SVMPs are key toxins associated with causing coagulopathy, we next investigated whether the same peptidomimetic and metal chelating inhibitors could also neutralize the procoagulant bioactivities of viper venoms. To do so, we used a validated kinetic absorbance-based assay monitoring plasma clotting^35 in the presence or absence of venoms and inhibitors (FIG. 11).
We used a previously developed plasma clotting assay^35 to measure venom-induced coagulation. Briefly, 100 ng of each venom was incubated at 37° C. for 30 min in the presence or absence of inhibitors (150 μM to 150 nM final concentrations). The final reaction consisted of 10 μl venom±inhibitors in PBS, 20 μl 20 mM CaCl2), and 20 μl citrated bovine plasma (VWR). The samples were pipetted in triplicate into 384-well plates, and absorbance monitored at 595 nm for 2 h at 25° C. on an Omega FLUOstar instrument. We calculated the maximum clotting velocity of each of the curves as per clot waveform analysis^67, by calculating the maximum of the first derivative. The means of at least three independent experimental runs for each condition were plotted at each inhibitor concentration with SEMs.

| Structure (SMILES) | tolerability ([1]; Phase 1 and 2) | risk of major adverse cardiovascular events ([1]; Phase 2B, same daily dose, >300 patients for >6 months) | risk of myocardial infarction ([1]; Phase 3, acute coronary syndrome patients, 500 mg oral daily) | inhibition of anticoagulant fractions of D. russelii venom [2] | inhibition of procoagulant fractions of D. russelii venom [2] | half-life ([3]; delivered by iv infusion) | oral bioavailability (words) ([3]; human, in vivo, po) | effect on procoagulant activity of whole D. russelii venom [4] | IC50 [5] | side effects ([1]; single doses of up to 800 mg, bidaily 200 mg for 6.5 days, or 75 mg daily for 28 days) | oral bioavailability ([3]; human, in vivo, po) | oral bioavailability (words) ([3]; human, in vivo, po, listed as Marimastat) | half-life ([3]; oral) | time to peak plasma concentrations post-administration ([3]; oral) | neutralization of procoagulant activities ([5]; E. ocellatus, E. carinatus and B. asper venoms, highest dose 150 μM) |
| --- | --- | --- | --- | --- | --- | --- | --- | --- | --- | --- | --- | --- | --- | --- | --- |
| CCc1c(C(=O)C(N)=O)c2c(OCC(=O)O)cccc2n1Cc1ccccc1 [varespladib] | well tolerated | no greater risk of major adverse cardiovascular events | greater risk of myocardial infarction than those receiving placebo | effectively inhibited the anticoagulant activity | some inhibitory effect against procoagulant venom toxins, but only at very high doses (20 μM) | 5 h | good oral bioavailability |  |  |  |  |  |  |  |  |
| CNC(=O)[C@@H](NC(=O)[C@H](CC(C)C)[C@H](O)C(=O)NO)C(C)(C)C [marimastat] |  |  |  | not neutralized by this inhibitor at any of the tested concentrations | effectively inhibited in a dose-dependent manner |  | excellent oral bioavailability | revealed clear venom anticoagulant effects | 150 to 1920 nM | no notable side effects | 70% | particularly good oral bioavailability | 8 to 10 h | 1.5 to 3 h |  |
| O=S(=O)(O)CC(S)CS (centres unmarked) [DMPS, 2,3-dimercapto-1-propanesulfonic acid] |  |  |  |  |  |  |  | ineffective | 800 to 25900 nM |  |  |  |  |  | effective at neutralizing the procoagulant activities |

Source: US12285408B2, “Methods and compositions for the treatment of snake bite” (priority 2021, dated 2025)
